Reference: US20040198794A1, “Ondansetron forms and processes of making the same” (priority 2003, published 2004)

Assays:
Type in all cases: physicochemical
[1] = Hydration of solid ondansetron base on exposure to humidity
Excerpt: After storage of the anhydrate form at humidity exceeding 10% RH, hydrates may be formed. A stable hydrated form comprise 1.3-1.5% of water, this corresponding to approximately 0.25 molar equivalent of water (a hemi-hemihydrate). Accordingly, another ondansetron form of the present invention is an ondansetron hydrate comprising ondansetron and water wherein the amount of water relative to ondansetron is within the range of 0.23-0.27 moles, more preferably 0.24-0.26 moles, per each one mole of ondansetron. Exposure of this or the anhydrated product to enhanced humidity (70% RH) results in a product having about 3% water content which corresponds to a hemihydrate (0.5 molar equivalent of water). Exposure to extreme humidity of about 90% or more leads to a monohydrate form of about 5% water. The most useful hydrated form of ondansetron base is the hemi-hemi hydrate as this is formed under most precipitation conditions and is stable. The above forms I or II are preferably hydrates containing 1.3-1.5% of water.

[2] = Dissolution and release of microcrystalline ondansetron; details: particle size smaller than 200 microns
Excerpt: It has been further discovered that ondansetron base having a particle size smaller than 200 microns (hereinafter “microcrystalline ondansetron”) is more suitable in making pharmaceutical formulations.

[3] = Solvent-induced conversion between forms by slurrying
Excerpt: It is sensitive to a solvent-induced conversion into a form II defined below by slurrying in some polar solvents, e.g. in methanol or water, while it is inert to the same slurrying or solvent treatment in non-polar solvents. […] Form II is resistant to a solvent-inducing conversion to form I at ambient temperature.

[4] = Storage stability of solid ondansetron forms

## Cc1nccn1CC1CCc2c(c3ccccc3n2C)C1=O (stereo not shown) [ondansetron base]
[1]; enhanced humidity (70% RH), corresponds to a hemihydrate
  water content after exposure to humidity: about 3%
[1]; extreme humidity of about 90% or more, monohydrate form
  water content after exposure to humidity: about 5%

## Cc1nccn1CC1CCc2c(c3ccccc3n2C)C1=O (stereo not shown) [microcrystalline ondansetron]
[2]; making liquid compositions
  dissolution in liquid medium: dissolves more rapidly
[2]
  release from the tablet composition: releases more rapidly

## Cc1nccn1CC1CCc2c(c3ccccc3n2C)C1=O (stereo not shown) [form I]
[3]; slurrying in some polar solvents, e.g. methanol or water
  solvent-induced conversion into form II: sensitive
[3]; slurrying or solvent treatment in non-polar solvents
  solvent-induced conversion into form II: inert
[4]; storage at ambient and elevated temperatures
  stability during storage: sufficiently stable

## Cc1nccn1CC1CCc2c(c3ccccc3n2C)C1=O (stereo not shown) [Form II]
[3]; ambient temperature
  solvent-inducing conversion to form I: resistant
[4]; prolonged storage at 40° C./75% relative humidity (RH)
  form conversion during storage: partial conversion to Form I
[4]; room temperature, stored in closed vial
  stability during storage: stable
